# From patent publication US20130109682A1, “CYCLIC ETHER COMPOUNDS USEFUL AS KINASE INHIBITORS” (NOVARTIS AG, priority 2010, published 2013)
# How the values were obtained:
# [1] = tested on: KMS11 (human myeloma cell line); experiment: Cell proliferation assay (CellTiter-Glo), KMS11; format: cell-based; details: Homo sapiens, KMS-11; KMS11 cells, cell proliferation; read-out: KMS11-Luc EC50
# How it was run: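 EC50 derived from CellTiter-Glo luminescence after 3-day exposure at 37° C. Compound was diluted to 2× in medium and added to an equal volume of cells. KMS11 myeloma cells were plated on assay day at 2000/well in IMDM with 10% FBS and sodium pyruvate.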
# PIM2 = PIM2 (Homo sapiens, UniProt Q9P1W9); experiment: Pim 2 AlphaScreen assay (high ATP); format: biochemical; details: read-out: Pim2 IC50
# Protocol: (§1) Pim1, Pim2, Pim3 AlphaScreen Assay Pim 1, Pim 2 & Pim 3 AlphaScreen assays using high ATP (11-125×ATP Km) were used to determine the biochemical activity of the inhibitors. The activity of Pim 1, Pim 2, & Pim 3 is measured using a homogeneous bead based system quantifying the amount of phosphorylated peptide substrate resulting from kinase-catalyzed phosphoryl transfer to a peptide substrate. Compounds to be tested are dissolved in 100% DMSO and directly distributed to a white 384-well plate at […] per well. To start the reaction, 5 μl of 100 nM Bad peptide (Biotin-AGAGRSRHSSYPAGT —OH) and ATP (concentrations described below) in assay buffer (50 mM Hepes, pH=7.5, 5 mM MgCl2, 0.05% BSA, 0.01% Tween-20, 1 mM DTT) is added to each well. This is followed by the addition of 5 μl/well of Pim 1, Pim 2 or Pim 3 kinase in assay buffer (concentrations described below). Final assay concentrations (described below) are in 2.5% DMSO. The reactions are performed for ˜2 hours, then stopped by the addition of 10 μl of 0.75 μg/ml anti-phospho Ser/Thr antibody (Cell Signaling), 10 μg/ml Protein A AlphaScreen beads (Perkin Elmer), and 10 μg/ml streptavidin coated AlphaScreen beads in stop/detection buffer (50 mM EDTA, 95 mM Tris, pH=7.5, 0.01% Tween-20). The stopped reactions are incubated overnight in the dark. The phosphorylated peptide is detected via an […] initiated chemiluminescence/fluorescence cascade using the Envision plate reader (Perkin Elmer).
# (§2) IC50, the half maximal inhibitory concentration, represents the concentration of a test compound that is required for 50% inhibition of its target in vitro under the described assay conditions.
# GSK3β = GSK3β (Homo sapiens, UniProt P49841); experiment: GSK3β ATP depletion assay; format: biochemical; details: ATP depletion assay; read-out: GSK3b IC50
# How it was run: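 Kinase activity is read as ATP consumption: luciferase luminescence reports the ATP remaining once roughly half of the 2 μM ATP is used. Reaction mix: 5 nM GSK3β, 10 μM b-CREB peptide, 50 mM Tris pH 7.5, 15 mM MgCl2, 1 mM DTT, 0.1% BSA, 2.5% DMSO. Enzyme and peptide are preincubated 15 min before ATP is added.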
# PIM1 = PIM1 (Homo sapiens, UniProt P11309); experiment: Pim 1 AlphaScreen assay (high ATP); format: biochemical; details: read-out: Pim1 IC50
# Protocol: as §1, §2
# PIM3 = PIM3 (Homo sapiens, UniProt Q86V86); experiment: Pim 3 AlphaScreen assay (high ATP); format: biochemical; details: read-out: Pim3 IC50
# Protocol: as §1, §2
# PIM2, sequence (Q9P1W9 whole entry): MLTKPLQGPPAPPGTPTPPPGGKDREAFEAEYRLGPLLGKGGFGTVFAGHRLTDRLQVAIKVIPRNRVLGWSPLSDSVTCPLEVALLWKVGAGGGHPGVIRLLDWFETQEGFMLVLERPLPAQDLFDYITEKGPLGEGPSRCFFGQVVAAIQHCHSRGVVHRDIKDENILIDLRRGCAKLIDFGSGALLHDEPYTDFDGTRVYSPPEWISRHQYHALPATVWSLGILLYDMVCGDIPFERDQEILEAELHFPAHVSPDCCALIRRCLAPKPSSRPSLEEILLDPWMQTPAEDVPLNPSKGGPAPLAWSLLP
# GSK3β, sequence (P49841 whole entry, species assumed): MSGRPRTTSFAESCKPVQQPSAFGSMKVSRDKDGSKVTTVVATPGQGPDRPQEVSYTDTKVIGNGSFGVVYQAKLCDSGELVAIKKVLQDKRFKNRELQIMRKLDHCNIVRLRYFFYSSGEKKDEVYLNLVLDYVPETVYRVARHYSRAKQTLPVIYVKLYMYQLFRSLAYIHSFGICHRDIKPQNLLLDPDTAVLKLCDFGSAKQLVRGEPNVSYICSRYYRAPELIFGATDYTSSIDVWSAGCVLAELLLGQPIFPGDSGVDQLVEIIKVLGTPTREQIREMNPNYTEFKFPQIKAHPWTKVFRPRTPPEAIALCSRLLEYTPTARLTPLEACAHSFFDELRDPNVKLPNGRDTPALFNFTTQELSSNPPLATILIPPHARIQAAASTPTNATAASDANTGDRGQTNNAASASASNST
# PIM1, sequence (P11309 whole entry): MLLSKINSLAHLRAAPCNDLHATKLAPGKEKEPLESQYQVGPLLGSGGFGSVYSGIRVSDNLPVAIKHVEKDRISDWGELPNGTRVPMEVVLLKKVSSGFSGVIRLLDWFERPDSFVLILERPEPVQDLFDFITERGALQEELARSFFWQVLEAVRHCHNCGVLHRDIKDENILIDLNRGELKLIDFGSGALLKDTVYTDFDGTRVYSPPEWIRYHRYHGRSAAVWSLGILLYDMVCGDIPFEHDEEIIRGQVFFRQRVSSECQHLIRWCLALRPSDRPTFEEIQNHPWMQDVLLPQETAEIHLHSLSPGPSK
Compound,EC50 [1],IC50 (PIM2),IC50 (GSK3β),IC50 (PIM1),IC50 (PIM3)
"C[C@]1(O)[C@H](N)CC(c2ccncc2NC(=O)c2ccc(F)c(-c3c(F)cc(S(C)(=O)=O)cc3F)n2)O[C@@H]1C1CC1 (stereo in doubt) [Example 281, N-(4-((2S,4R,5S,6R)-4-amino-6-cyclopropyl-5-hydroxy-5-methyltetrahydro-2H-pyran-2-yl)pyridin-3-yl)-6-(2,6-difluoro-4-(methylsulfonyl)phenyl)-5-fluoropicolinamide]",1090 nM,62.3 nM,4250 nM,–,–
"Nc1cc(F)c(-c2c(F)cccc2F)nc1C(=O)Nc1cnccc1[C@H]1C[C@@H](N)[C@@]2(O)CCC[C@H]2O1 [Example 216, 3-amino-N-(4-((2R,4R,4aS,7aR)-4-amino-4a-hydroxyoctahydrocyclopenta[b]pyran-2-yl)pyridin-3-yl)-6-(2,6-difluorophenyl)-5-fluoropicolinamide]",530 nM,–,946 nM,0.14 nM,1.7 nM
"CC(C)[C@@H]1C[C@H](N)C[C@H](c2ccncc2NC(=O)c2ccc(F)c(-c3c(F)cc(S(C)(=O)=O)cc3F)n2)O1 [Example 302, N-(4-((2R,4S,6S)-4-amino-6-isopropyltetrahydro-2H-pyran-2-yl)pyridin-3-yl)-6-(2,6-difluoro-4-(methylsulfonyl)phenyl)-5-fluoropicolinamide]",1620 nM,71.3 nM,1580 nM,–,–
"CC(C)[C@H]1O[C@@H](c2ccncc2NC(=O)c2ccc(F)c(-c3ccccc3)n2)C[C@@H](N)[C@@H]1O [Example 309, N-(4-((2R,4R,5S,6R)-4-amino-5-hydroxy-6-isopropyltetrahydro-2H-pyran-2-yl)pyridin-3-yl)-5-fluoro-6-phenylpicolinamide]",–,131 nM,8120 nM,–,–
"CC(C)[C@H]1O[C@@H](c2ccncc2NC(=O)c2ccnc(-n3c(F)cccc3=O)n2)C[C@@H](N)[C@@H]1O [Example 310, N-(4-((2R,4R,5S,6R)-4-amino-5-hydroxy-6-isopropyltetrahydro-2H-pyran-2-yl)pyridin-3-yl)-2-(6-fluoro-2-oxopyridin-1(2H)-yl)pyrimidine-4-carboxamide]",–,6940 nM,3310 nM,–,–
"C[C@H]1O[C@@H](c2ccncc2NC(=O)c2ccc(F)c(-c3ccc(N)nc3F)n2)C[C@@H](N)[C@]1(C)O [Example 311, 6′-amino-N-(4-((2R,4R,5S,6R)-4-amino-5-hydroxy-5,6-dimethyltetrahydro-2H-pyran-2-yl)pyridin-3-yl)-2′,3-difluoro-2,3′-bipyridine-6-carboxamide]",–,84.6 nM,2300 nM,–,–
"CC(C)[C@H]1O[C@@H](c2ccncc2NC(=O)c2ccc(F)c(-c3cccc(S(C)(=O)=O)c3)n2)C[C@@H](N)[C@@H]1O [Example 312, N-(4-((2R,4R,5S,6R)-4-amino-5-hydroxy-6-isopropyltetrahydro-2H-pyran-2-yl)pyridin-3-yl)-5-fluoro-6-(3-(methylsulfonyl)phenyl)picolinamide]",–,2480 nM,> 25000 nM,–,–
"C[C@H]1O[C@@H](c2ccncc2NC(=O)c2ccc(F)c(-c3c(F)cc(C(=O)N(C)C)cc3F)n2)C[C@@H](N)[C@]1(C)O [Example 334, N-(4-((2R,4R,5S,6R)-4-amino-5-hydroxy-5,6-dimethyltetrahydro-2H-pyran-2-yl)pyridin-3-yl)-6-(4-(dimethylcarbamoyl)-2,6-difluorophenyl)-5-fluoropicolinamide]",760 nM,62.7 nM,–,–,–
"C[C@H]1O[C@@H](c2ccncc2NC(=O)c2ccc(F)c(N3CCS(=O)(=O)CC3)n2)C[C@@H](N)[C@]1(C)O [Example 335, N-(4-((2R,4R,5S,6R)-4-amino-5-hydroxy-5,6-dimethyltetrahydro-2H-pyran-2-yl)pyridin-3-yl)-6-(1,1-dioxidothiomorpholino)-5-fluoropicolinamide]",> 10000 nM,> 25000 nM,–,–,–

# The next lines start with the values.
EC50 [1],IC50 (PIM2),IC50 (GSK3β),IC50 (PIM1),IC50 (PIM3),Compound
310 nM,15.3 nM,2840 nM,–,–,"CC(C)[C@H]1OC(c2ccncc2NC(=O)c2ccc(F)c(-c3c(F)cc(S(C)(=O)=O)cc3F)n2)C[C@@H](N)[C@@H]1O (stereo in doubt) [Example 305, N-(4-((2S,4R,5S,6R)-4-amino-5-hydroxy-6-isopropyltetrahydro-2H-pyran-2-yl)pyridin-3-yl)-6-(2,6-difluoro-4-(methylsulfonyl)phenyl)-5-fluoropicolinamide]"
200 nM,11.8 nM,2250 nM,–,–,"CC(C)(C)[C@H]1O[C@@H](c2ccncc2NC(=O)c2ccc(F)c(-c3c(F)cc(S(C)(=O)=O)cc3F)n2)C[C@@H](N)[C@@H]1O [Example 280, N-(4-((2R,4R,5S,6R)-4-amino-6-(tert-butyl)-5-hydroxytetrahydro-2H-pyran-2-yl)pyridin-3-yl)-6-(2,6-difluoro-4-(methylsulfonyl)phenyl)-5-fluoropicolinamide]"
1170 nM,44.9 nM,1290 nM,–,–,"C[C@H]1O[C@@H](c2ccncc2NC(=O)c2ccc(F)c(-c3c(F)cc(S(C)(=O)=O)cc3F)n2)C[C@@H](N)[C@]1(C)O [Example 285, N-(4-((2R,4R,5S,6R)-4-amino-5-hydroxy-5,6-dimethyltetrahydro-2H-pyran-2-yl)pyridin-3-yl)-6-(2,6-difluoro-4-(methylsulfonyl)phenyl)-5-fluoropicolinamide]"
140 nM,6.4 nM,225 nM,–,–,"CC1(C)C[C@H](N)C[C@@H](c2ccncc2NC(=O)c2ccc(F)c(-c3c(F)cccc3F)n2)O1 [Example 299, N-(4-((2S,4R)-4-amino-6,6-dimethyltetrahydro-2H-pyran-2-yl)pyridin-3-yl)-6-(2,6-difluorophenyl)-5-fluoropicolinamide]"
690 nM,11.5 nM,3300 nM,–,–,"CC(C)[C@@H]1C[C@H](N)C[C@H](c2ccncc2NC(=O)c2ccc(F)c(-c3c(F)cccc3F)n2)O1 [Example 300, N-(4-((2R,4S,6S)-4-amino-6-isopropyltetrahydro-2H-pyran-2-yl)pyridin-3-yl)-6-(2,6-difluorophenyl)-5-fluoropicolinamide]"
3760 nM,27.3 nM,–,–,–,"CNC(=O)c1cc(F)c(-c2nc(C(=O)Nc3cnccc3[C@H]3C[C@@H](N)[C@](C)(O)[C@@H](C)O3)ccc2F)c(F)c1 [Example 333, N-(4-((2R,4R,5S,6R)-4-amino-5-hydroxy-5,6-dimethyltetrahydro-2H-pyran-2-yl)pyridin-3-yl)-6-(2,6-difluoro-4-(methylcarbamoyl)phenyl)-5-fluoropicolinamide]"
180 nM,3.9 nM,–,–,–,"CC[C@H]1O[C@@H](c2ccncc2NC(=O)c2ccc(F)c(-c3c(F)cc(C(C)(C)O)cc3F)n2)C[C@@H](N)[C@@H]1O [Example 336, N-(4-((2R,4R,5S,6R)-4-amino-6-ethyl-5-hydroxytetrahydro-2H-pyran-2-yl)pyridin-3-yl)-6-(2,6-difluoro-4-(2-hydroxypropan-2-yl)phenyl)-5-fluoropicolinamide]"
1350 nM,40 nM,–,–,–,"CC(C)[C@@H]1C[C@H](N)C[C@H](c2ccncc2NC(=O)c2ccc(F)c(-c3c(F)ccc(C#N)c3F)n2)O1 [Example 337, N-(4-((2R,4S,6S)-4-amino-6-isopropyltetrahydro-2H-pyran-2-yl)pyridin-3-yl)-6-(3-cyano-2,6-difluorophenyl)-5-fluoropicolinamide]"
940 nM,2.1 nM,–,–,–,"CC(=O)Nc1cc(F)c(-c2nc(C(=O)Nc3cnccc3[C@H]3C[C@@H](N)[C@](C)(O)[C@@H](C)O3)ccc2F)c(F)c1 [Example 338, 6-(4-acetamido-2,6-difluorophenyl)-N-(4-((2R,4R,5S,6R)-4-amino-5-hydroxy-5,6-dimethyltetrahydro-2H-pyran-2-yl)pyridin-3-yl)-5-fluoropicolinamide]"
230 nM,3.5 nM,–,–,–,"CC(C)C(=O)Nc1cc(F)c(-c2nc(C(=O)Nc3cnccc3[C@H]3C[C@@H](N)[C@](C)(O)[C@@H](C)O3)ccc2F)c(F)c1 [Example 339, N-(4-((2R,4R,5S,6R)-4-amino-5-hydroxy-5,6-dimethyltetrahydro-2H-pyran-2-yl)pyridin-3-yl)-6-(2,6-difluoro-4-isobutyramidophenyl)-5-fluoropicolinamide]"
